Results taken from US20260297042A1, “BIARYLAMIDE DERIVATIVES AND THEIR USE AS PKMYT1 INHIBITORS” (CANCER RESEARCH TECHNOLOGY LIMITED, priority 2023, published 2026).

How the values were obtained:
WEE1 = target: T1, WEE1 (Homo sapiens, UniProt P30291); test: Selectivity versus WEE1 assay (ADP-Glo enzymatic assay); assay type: biochemical; conditions: banded; for IC50: ADP-Glo, 15 nM WEE1, 60 minutes at 26° C.; for PKMYT1 vs. WEE1 selectivity: fold difference in selectivity for PKMYT1 over WEE1, ">N" = at least in this band but could be higher
T1 construct: purchased Thermo Fisher PR7373A
Method: Selectivity versus WEE1 assay: Selectivity was established using the same format as outlined for PKMYT1. After dosing of compounds via the Echo acoustic dispenser—as described above—WEE1 (Thermo Fisher PR7373A) was added to each well at a final concentration of 15 nM in a buffer of 50 mM HEPES (pH 7.5), 10 mM MgCl2, 1 mM EGTA, 0.01% Brij-35, 1% DMSO. 30 µM ATP was added to start the reaction with the final assay volume being 4 μl. The plate was then incubated for 60 minutes at 26° C. before the addition of 4 μl of ADP-Glo Reagent. Following a further 60 minute incubation the assay signal was developed by the addition of 8 μl ADP-Glo Detection Reagent. After 60 minutes the luminescence signal was read on a PHERAStar FS microplate reader (BMG Labtech).
(§1) Data analysis: Data was captured and analysed within the Dotmatics Studies software module where dose response curves were generated and IC50 values determined. Acceptance and verification of data followed strict in-house business rules which are summarised as follows. […] Technical and biological replicates of each compound are routinely tested and replicate IC50 values must fall within 3-fold of each other with dose response curves showing ‘goodness of fit’ r2 values >0.9. Failure to meet any of these defined criteria result in rejection of data.

Human PKMYT1 = target: T2, Human PKMYT1 (Homo sapiens, UniProt Q99640); test: PKMYT1 biochemical ADP-Glo enzymatic assay; conditions: ADP-Glo; 15 nM PKMYT1 kinase domain, 500 µM ATP, 60 minutes at 26° C.; banded
T2 construct: Human PKMYT1 75-362 was cloned as a TEV cleavable 6xHis fusion; 6xHis (TEV cleavable) (cleaved yes); made in house; host or cells: bacterial cells
T2 sequence (Q99640 75-362): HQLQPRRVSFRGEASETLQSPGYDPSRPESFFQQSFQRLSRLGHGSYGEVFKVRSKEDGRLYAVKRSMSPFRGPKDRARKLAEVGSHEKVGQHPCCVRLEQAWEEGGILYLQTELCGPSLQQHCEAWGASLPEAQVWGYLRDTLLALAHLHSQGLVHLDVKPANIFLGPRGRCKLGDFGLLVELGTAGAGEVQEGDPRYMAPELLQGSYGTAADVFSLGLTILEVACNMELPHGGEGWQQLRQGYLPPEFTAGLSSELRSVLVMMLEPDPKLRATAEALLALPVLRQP
Method: Human PKMYT1 75-362 was cloned as a TEV cleavable 6xHis fusion in bacterial cells. After purification on a Ni++HiTrap Chelating HP column, the His-tag was cleaved using TEV protease. Cleaved PKMYT1 was further purified on a Superdex 200 16/600 sizing column. The fractions containing PKMYT1 were pooled and concentrated using an ultrafiltration centrifugal protein concentrator. The purified protein was aliquoted, flash frozen in liquid nitrogen, and stored at −80° C.
PKMYT1 biochemical assay: Inhibition of PKMYT1 was assessed using the ADP-Glo™ Max Detection System from Promega. This assay detects the production of ADP from ATP by PKMYT1 via a two-step process ultimately involving the conversion of ADP to ATP with the latter converted to light in a coupled reaction with luciferase/luciferin. Inhibition of PKMYT1 by small molecule inhibitors results in a retardation of luminescence above background. The intrinsic ATPase activity of PKMYT1 was assessed according to the following protocol. Compounds were dosed into Corning white low volume 384 well assay plates using an Echo acoustic dispenser to generate 10-point curves spanning a 3-fold dilution series. DMSO (no inhibitor) control wells were prepared to benchmark the maximum and minimum signals in the presence and absence of PKMYT1, respectively. The PKMYT1 kinase domain was purified in-house, as described above, and added to the wells at a final concentration of 15 nM in a buffer of 50 mM HEPES (pH 7.5), 10 mM MgCl2, 1 mM EGTA, 0.01% Brij-35, 1% DMSO. 500 µM ATP was added to start the reaction with the final assay volume being 4 μl. The plate was then incubated for 60 minutes at 26° C. before the addition of 4 μl of ADP-Glo Reagent to stop the reaction and deplete the unconsumed ATP. Following a further 60 minute incubation the assay signal was developed by the addition of 8 μl ADP-Glo Max Detection Reagent. After 60 minutes the luminescence signal was read on a PHERAStar FS microplate reader (BMG Labtech).
as §1

T1 sequence (P30291 whole entry): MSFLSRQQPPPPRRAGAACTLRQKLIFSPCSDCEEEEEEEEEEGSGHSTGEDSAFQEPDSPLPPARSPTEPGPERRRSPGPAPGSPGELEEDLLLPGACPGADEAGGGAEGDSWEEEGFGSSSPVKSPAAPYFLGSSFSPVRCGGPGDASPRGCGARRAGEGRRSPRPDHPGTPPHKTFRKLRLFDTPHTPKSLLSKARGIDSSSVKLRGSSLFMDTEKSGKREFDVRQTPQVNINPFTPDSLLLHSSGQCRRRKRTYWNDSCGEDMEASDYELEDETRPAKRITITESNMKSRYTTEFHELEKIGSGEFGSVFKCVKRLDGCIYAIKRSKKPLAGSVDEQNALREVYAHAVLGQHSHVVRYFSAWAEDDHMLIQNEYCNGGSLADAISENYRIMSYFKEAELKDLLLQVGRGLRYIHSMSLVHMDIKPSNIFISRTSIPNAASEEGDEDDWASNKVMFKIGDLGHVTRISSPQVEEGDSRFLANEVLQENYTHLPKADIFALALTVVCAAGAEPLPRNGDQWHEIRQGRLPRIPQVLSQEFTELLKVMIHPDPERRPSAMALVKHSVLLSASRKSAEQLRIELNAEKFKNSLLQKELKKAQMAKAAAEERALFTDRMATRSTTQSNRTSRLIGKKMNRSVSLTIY

| SMILES | IC50 (WEE1) | PKMYT1 vs. WEE1 selectivity (WEE1) | IC50 (Human PKMYT1) |
| --- | --- | --- | --- |
| Cc1ccc(O)c(C)c1NC(=O)c1cnc(Nc2nc3c(s2)COCC3)s1 [BAA-029, 2-(6,7-dihydro-4H-pyrano[4,3-d]thiazol-2-ylamino)-N-(3-hydroxy-2,6-dimethyl-phenyl)thiazole-5-carboxamide] | > 11 µM | X (100-<1000 fold) | 0.05 to 1 µM |
| Cc1ccc(O)c(C)c1NC(=O)c1cnc(Nc2ncc[nH]2)s1 [BAA-030, N-(3-hydroxy-2,6-dimethyl-phenyl)-2-(1H-imidazol-2-ylamino)thiazole-5-carboxamide] | > 11 µM | >W (10-<100 fold) | 1 to 11 µM |
| Cc1ccc(O)c(C)c1NC(=O)c1cnc(Nc2ccn(C3CCN(C(=O)OC(C)(C)C)CC3)n2)s1 [BAA-031] | > 11 µM | >X (100-<1000 fold) | 0.05 to 1 µM |
| Cc1ccc(O)c(C)c1NC(=O)c1cnc(Nc2ccn(C3CCCOC3)n2)s1 (stereo not drawn) [BAA-036, N-(3-hydroxy-2,6-dimethyl-phenyl)-2-[(1-tetrahydropyran-3-ylpyrazol-3-yl)amino]thiazole-5-carboxamide] | > 11 µM | Z (>5000 fold) | < 0.05 µM |
| COCCn1ccc(Nc2ncc(C(=O)Nc3c(C)ccc(O)c3C)s2)n1 [BAA-040] | > 11 µM | X (100-<1000 fold) | 0.05 to 1 µM |
| Cc1ccc(O)c(C)c1NC(=O)c1cnc(Nc2ccn([C@H]3CCN(C(=O)OC(C)(C)C)C3)n2)s1 [BAA-042] | > 11 µM | >X (100-<1000 fold) | 0.05 to 1 µM |
| Cc1ccc(O)c(C)c1NC(=O)c1cnc(Nc2ccn([C@@H]3CCN(C(=O)OC(C)(C)C)C3)n2)s1 [BAA-043, tert-Butyl(3R)-3-[3-[[5-[(3-hydroxy-2.6-dimethyl-phenyl)carbamoyl]thiazol-2-yl]amino]pyrazol-1-yl]pyrrolidine-1-carboxylate] | > 11 µM | >Y (1000-5000 fold) | 0.05 to 1 µM |
| Cc1ccc(O)c(C)c1NC(=O)c1cnc(Nc2nc3ccccc3o2)s1 [BAA-044, 2-(1,3-benzoxazol-2-ylamino)-N-(3-hydroxy-2,6-dimethyl-phenyl)thiazole-5-carboxamide] | > 11 µM | >X (100-<1000 fold) | 0.05 to 1 µM |
| Cc1ccc(O)c(C)c1NC(=O)c1cnc(Nc2cc3ccccn3n2)s1 [BAA-048, N-(3-hydroxy-2,6-dimethyl-phenyl)-2-(pyrazolo[1,5-a]pyridin-2-ylamino)thiazole-5-carboxamide] | > 11 µM | Y (1000-5000 fold) | 0.05 to 1 µM |
| Cc1ccc(O)c(C)c1NC(=O)c1cnc(Nc2cc3ccc(Cl)cn3n2)s1 [BAA-051, 2-[(6-chloropyrazolo[1,5-a]pyridin-2-yl)amino]-N-(3-hydroxy-2,6-dimethyl-phenyl)thiazole-5-carboxamide] | > 11 µM | >X (100-<1000 fold) | 0.05 to 1 µM |

The remaining lines, values ahead:

| IC50 (WEE1) | PKMYT1 vs. WEE1 selectivity (WEE1) | IC50 (Human PKMYT1) | SMILES |
| --- | --- | --- | --- |
| 1 to 11 µM | W (10-<100 fold) | 0.05 to 1 µM | Cc1ccc(O)c(C)c1NC(=O)c1cnc(Nc2ccn(CC3CCOC3)n2)s1 (stereo not drawn) [BAA-032, N-(3-hydroxy-2,6-dimethyl-phenyl)-2-[[1-(tetrahydrofuran-3-ylmethyl)pyrazol-3-yl]amino]thiazole-5-carboxamide] |
| > 11 µM | X (100-<1000 fold) | < 0.05 µM | Cc1ccc(O)c(C)c1NC(=O)c1cnc(Nc2ccn(CC(=O)N3CCOCC3)n2)s1 [BAA-033] |
| 1 to 11 µM | X (100-<1000 fold) | < 0.05 µM | Cc1ccc(O)c(C)c1NC(=O)c1cnc(Nc2ccn(CC(=O)N3CCN(C)CC3)n2)s1 [BAA-034] |
| > 11 µM | X (100-<1000 fold) | 0.05 to 1 µM | Cc1ccc(O)c(C)c1NC(=O)c1cnc(Nc2ccn(CC(=O)NCCN3CCOCC3)n2)s1 [BAA-035] |
| > 11 µM | >X (100-<1000 fold) | 0.05 to 1 µM | Cc1ccc(O)c(C)c1NC(=O)c1cnc(Nc2ccn([C@@H]3CCOC3)n2)s1 [BAA-037] |
